Data published in BindingDB's records for doi:10.1074/jbc.M113.497990 (Vanderbilt University, 2013).

What was measured:
[1] = target: Putative lanosterol 14-alpha-demethylase (Leishmania infantum, UniProt A2TEF2); test: CYP51 Inhibition Assay; details: pH 7.4; 37 °C
Description: (§1) Briefly, the reaction mixture contained 1 uM CYP51, 2 uM cytochrome P450 reductase, 100 uM dilauroyl-alpha-phosphatidylcholine, 0.4 mg/ml isoctrate dehydrogenase, and 25mM sodium isocitrate in 20mM MOPS (pH 7.4), 50 mM KCl, 5 mM MgCl2, and 10% glycerol. After the addition of the 3H-radiolabeled sterol substrate (~2000 cpm/nmol, final concentration 50 uM) the mixture was preincubated for 5 min at 37 °C in a shaking water bath (GCA Precision Scientific). The reaction was initiated by the addition of 100 uM NADPH and stopped by extraction of the sterols with ethyl acetate. The reaction products were dried, dissolved in methanol, and analyzed by a reverse-phase HPLC system (Waters) equipped with a beta-RAM detector (INUS Systems, Inc.) using a Nova-Pak C18 column (particle size 4 uM, 3.9 x 150 mm) and a linear gradient consisting of water:acetonitrile:methanol (1.0:4.5:4.5) (solvent A) and methanol (solvent B) at a flow rate of 1 ml/min.

[2] = target: Sterol 14-alpha demethylase (Trypanosoma cruzi (strain CL Brener), UniProt Q7Z1V1); test: CYP51 Inhibition Assay; details: pH 7.4; 37 °C
Description: as §1

[3] = target: T1, Lanosterol 14-alpha demethylase (Homo sapiens, UniProt Q16850); test: CYP51 Inhibition Assay; details: pH 7.4; 37 °C
T1 sequence (Q16850 whole entry): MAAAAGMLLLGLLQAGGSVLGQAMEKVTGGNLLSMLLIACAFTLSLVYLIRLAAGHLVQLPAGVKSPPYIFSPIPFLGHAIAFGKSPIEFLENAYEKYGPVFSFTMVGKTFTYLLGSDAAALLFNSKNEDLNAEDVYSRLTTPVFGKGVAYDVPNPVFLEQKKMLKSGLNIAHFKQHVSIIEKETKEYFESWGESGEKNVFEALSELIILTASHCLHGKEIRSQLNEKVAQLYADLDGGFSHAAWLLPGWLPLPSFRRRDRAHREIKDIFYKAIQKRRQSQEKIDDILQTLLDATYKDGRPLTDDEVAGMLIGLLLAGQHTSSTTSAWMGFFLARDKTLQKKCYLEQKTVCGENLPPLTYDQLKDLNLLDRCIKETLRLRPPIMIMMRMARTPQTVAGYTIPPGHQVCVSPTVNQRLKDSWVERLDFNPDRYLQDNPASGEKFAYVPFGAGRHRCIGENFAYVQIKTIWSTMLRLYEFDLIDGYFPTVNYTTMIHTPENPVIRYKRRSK
Description: as §1

Cytochrome P450 2C9 = Cytochrome P450 2C9 (Homo sapiens, UniProt P11712); test: CYP Activity Assay; details: 37 °C
Description: (§2) Inhibition of hepatic cytochromes P450 was assessed in human liver microsomes using a substrate-specific approach of monitoring metabolites formed by each specific CYP enzyme. Metabolic reactions included phenacetin-O-deethylation (1A2), tolbutamide methylhydroxylation (2C9), S-mephenytoin 4'-hydroxylation (2C19), dextrome-thorphan-[…] (2D6), and testosterone-6-β-hydroxylation (3A4). Each substrate was added at a concentration less than or equal to the Km for themetabolic pathway, and microsomal protein concentrations and assay incubation times were optimized for each reaction to ensure linear metabolite formation based on initial rates (Table 1). Microsomes were suspended in phosphate buffer and incubated at 37 °C in the presence of probe substrates. Reactions were initiated by the addition of an NADPH-regenerating buffer system and were quenched at the appropriate times using acetonitrile. Samples were centrifuged and concentrations of metabolites assessed by LC/MS.

Cytochrome P450 2C19 = Cytochrome P450 2C19 (Homo sapiens, UniProt P33261); test: CYP Activity Assay; details: 37 °C
Description: as §2

Cytochrome P450 2D6 = Cytochrome P450 2D6 (Homo sapiens, UniProt P10635); test: CYP Activity Assay; details: 37 °C
Description: as §2

Cytochrome P450 1A2 = target: T2, Cytochrome P450 1A2 (Homo sapiens, UniProt P05177); test: CYP Activity Assay; details: 37 °C
T2 sequence (P05177 whole entry): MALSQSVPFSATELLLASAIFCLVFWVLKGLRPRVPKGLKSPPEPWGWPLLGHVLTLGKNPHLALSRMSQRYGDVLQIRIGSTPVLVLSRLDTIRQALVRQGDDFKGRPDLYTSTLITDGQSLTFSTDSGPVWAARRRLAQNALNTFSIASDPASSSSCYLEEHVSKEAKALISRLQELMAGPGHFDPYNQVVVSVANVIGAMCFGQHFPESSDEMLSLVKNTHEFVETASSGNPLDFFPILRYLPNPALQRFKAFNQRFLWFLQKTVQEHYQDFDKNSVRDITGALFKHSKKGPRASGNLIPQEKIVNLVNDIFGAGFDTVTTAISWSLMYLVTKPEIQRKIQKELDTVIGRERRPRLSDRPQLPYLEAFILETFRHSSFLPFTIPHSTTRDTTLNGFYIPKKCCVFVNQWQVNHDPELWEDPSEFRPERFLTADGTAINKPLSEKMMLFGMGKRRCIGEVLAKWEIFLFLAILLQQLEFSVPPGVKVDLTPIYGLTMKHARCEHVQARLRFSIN
Description: as §2

Cytochrome P450 3A4 = Cytochrome P450 3A4 (Homo sapiens, UniProt P08684); test: CYP Activity Assay; details: 37 °C
Description: as §2

Chain of Sterol 14-alpha demethylase (Q7Z1V1 whole entry): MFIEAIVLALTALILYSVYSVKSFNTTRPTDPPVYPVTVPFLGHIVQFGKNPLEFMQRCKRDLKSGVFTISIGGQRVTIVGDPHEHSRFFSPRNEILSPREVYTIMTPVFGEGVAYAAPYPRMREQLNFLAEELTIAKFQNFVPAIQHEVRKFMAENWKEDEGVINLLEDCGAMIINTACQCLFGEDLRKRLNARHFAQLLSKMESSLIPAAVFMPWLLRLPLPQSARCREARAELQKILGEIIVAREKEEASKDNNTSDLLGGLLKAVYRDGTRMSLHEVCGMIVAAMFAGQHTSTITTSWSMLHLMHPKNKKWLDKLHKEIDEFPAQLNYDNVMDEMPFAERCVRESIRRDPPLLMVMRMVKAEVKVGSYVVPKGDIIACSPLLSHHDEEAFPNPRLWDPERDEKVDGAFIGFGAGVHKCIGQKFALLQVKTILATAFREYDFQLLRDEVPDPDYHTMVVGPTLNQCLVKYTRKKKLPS
Chain of Putative lanosterol 14-alpha-demethylase (A2TEF2 whole entry): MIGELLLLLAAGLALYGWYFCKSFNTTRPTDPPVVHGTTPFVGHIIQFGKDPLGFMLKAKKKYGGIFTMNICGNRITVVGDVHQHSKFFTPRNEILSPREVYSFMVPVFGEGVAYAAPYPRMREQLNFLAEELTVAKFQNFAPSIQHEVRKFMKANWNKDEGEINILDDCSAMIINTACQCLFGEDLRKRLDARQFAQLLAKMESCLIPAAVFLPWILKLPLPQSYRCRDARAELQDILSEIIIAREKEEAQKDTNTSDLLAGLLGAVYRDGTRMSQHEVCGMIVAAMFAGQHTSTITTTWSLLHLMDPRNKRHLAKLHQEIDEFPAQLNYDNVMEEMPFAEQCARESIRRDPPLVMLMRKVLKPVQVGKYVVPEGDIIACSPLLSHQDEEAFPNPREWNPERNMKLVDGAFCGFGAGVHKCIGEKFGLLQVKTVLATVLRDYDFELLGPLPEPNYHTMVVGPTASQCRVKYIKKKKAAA
Chain of Cytochrome P450 2D6 (P10635 whole entry): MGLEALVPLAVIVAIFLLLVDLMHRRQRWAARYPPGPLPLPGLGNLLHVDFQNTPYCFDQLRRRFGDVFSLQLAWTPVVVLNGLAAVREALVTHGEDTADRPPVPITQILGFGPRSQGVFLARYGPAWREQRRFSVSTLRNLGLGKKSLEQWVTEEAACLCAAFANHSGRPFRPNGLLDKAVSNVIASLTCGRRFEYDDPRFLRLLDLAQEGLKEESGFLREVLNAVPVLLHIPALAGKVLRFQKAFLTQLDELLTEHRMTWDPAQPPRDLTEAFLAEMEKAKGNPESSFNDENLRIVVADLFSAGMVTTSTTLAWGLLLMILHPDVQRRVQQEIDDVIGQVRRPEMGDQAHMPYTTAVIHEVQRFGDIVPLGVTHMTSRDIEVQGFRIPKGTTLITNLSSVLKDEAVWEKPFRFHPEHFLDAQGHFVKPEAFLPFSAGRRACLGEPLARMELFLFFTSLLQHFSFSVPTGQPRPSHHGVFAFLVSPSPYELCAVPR
Chain of Cytochrome P450 2C9 (P11712 whole entry): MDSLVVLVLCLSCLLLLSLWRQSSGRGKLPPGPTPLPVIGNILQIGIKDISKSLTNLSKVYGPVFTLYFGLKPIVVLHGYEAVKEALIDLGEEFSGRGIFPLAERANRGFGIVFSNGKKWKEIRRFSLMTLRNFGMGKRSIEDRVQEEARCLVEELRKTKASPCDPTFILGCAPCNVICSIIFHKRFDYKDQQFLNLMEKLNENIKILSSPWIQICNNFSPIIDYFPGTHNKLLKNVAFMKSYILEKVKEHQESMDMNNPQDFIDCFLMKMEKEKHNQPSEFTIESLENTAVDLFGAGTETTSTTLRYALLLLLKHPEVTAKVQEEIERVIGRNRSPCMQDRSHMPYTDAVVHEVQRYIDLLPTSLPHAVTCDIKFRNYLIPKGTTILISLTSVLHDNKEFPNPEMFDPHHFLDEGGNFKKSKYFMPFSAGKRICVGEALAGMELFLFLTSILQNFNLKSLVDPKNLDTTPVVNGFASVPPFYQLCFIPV
Chain of Cytochrome P450 2C19 (P33261 whole entry): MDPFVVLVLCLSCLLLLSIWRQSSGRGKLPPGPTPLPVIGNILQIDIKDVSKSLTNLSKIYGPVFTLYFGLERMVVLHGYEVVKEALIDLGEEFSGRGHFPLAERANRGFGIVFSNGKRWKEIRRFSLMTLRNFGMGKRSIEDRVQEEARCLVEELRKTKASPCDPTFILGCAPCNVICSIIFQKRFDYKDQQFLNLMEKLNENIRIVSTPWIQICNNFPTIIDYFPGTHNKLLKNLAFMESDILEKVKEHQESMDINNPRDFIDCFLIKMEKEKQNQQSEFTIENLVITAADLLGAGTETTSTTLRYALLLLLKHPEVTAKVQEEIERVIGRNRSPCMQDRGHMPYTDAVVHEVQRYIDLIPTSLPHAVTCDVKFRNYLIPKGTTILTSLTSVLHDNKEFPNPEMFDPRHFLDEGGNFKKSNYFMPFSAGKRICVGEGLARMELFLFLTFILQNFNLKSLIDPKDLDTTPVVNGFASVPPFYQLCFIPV
Chain of Cytochrome P450 3A4 (P08684 whole entry): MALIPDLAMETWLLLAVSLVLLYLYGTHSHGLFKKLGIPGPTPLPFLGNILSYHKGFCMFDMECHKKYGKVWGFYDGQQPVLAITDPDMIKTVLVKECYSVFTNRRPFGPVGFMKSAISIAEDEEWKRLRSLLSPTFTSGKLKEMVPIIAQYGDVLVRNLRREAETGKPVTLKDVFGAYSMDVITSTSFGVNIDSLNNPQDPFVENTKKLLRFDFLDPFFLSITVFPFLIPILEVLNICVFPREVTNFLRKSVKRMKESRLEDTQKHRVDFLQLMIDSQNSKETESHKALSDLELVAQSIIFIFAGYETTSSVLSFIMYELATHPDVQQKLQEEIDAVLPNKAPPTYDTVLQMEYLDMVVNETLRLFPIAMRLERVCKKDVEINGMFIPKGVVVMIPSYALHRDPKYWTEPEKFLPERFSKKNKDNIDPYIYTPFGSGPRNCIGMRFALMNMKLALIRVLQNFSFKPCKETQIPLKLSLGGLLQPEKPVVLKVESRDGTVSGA

Row | Structure (SMILES) | Kd [1] | Kd [2] | Kd [3] | IC50 (Cytochrome P450 2C9) | IC50 (Cytochrome P450 2C19) | IC50 (Cytochrome P450 2D6) | IC50 (Cytochrome P450 1A2) | IC50 (Cytochrome P450 3A4)
1 | FC(F)(F)c1ccc(N(c2cccnc2)C2CCN(c3ccc(C(F)(F)F)cn3)CC2)cc1 [EPL-BS0967 (UDD)] | 419 nM | 32 nM | 26 nM | 8100 nM | 9800 nM | 20000 nM | > 20000 nM | –
2 | O=C([C@@H](c1ccc(Cl)cc1)c1cccnc1)N1CCN(c2ccc(C(F)(F)F)cc2)CC1 [EPL-BS1246 (UDO)] | 156 nM | 19 nM | 69 nM | 9000 nM | 12000 nM | 4000 nM | > 20000 nM | 20000 nM
3 | CC[C@@H]([C@H](C)O)n1ncn(-c2ccc(N3CCN(c4ccc(OCC5CO[C@@](Cn6cncn6)(c6ccc(F)cc6F)C5)cc4)CC3)cc2)c1=O (some centres not stated) [Posaconazole] | 18 nM | – | – | – | – | – | – | –
4 | O=C(N[C@@H](Cn1ccnc1)c1ccc(Cl)cc1Cl)c1ccc(-c2nnc(-c3ccccc3)o2)cc1 [VNI] | – | 15 nM | – | – | – | – | – | –
